From US7135568B2, “Substituted pyrazolopyrimidines and thiazolopyrimidines” (Gruenenthal GmbH, priority 2001, dated 2006)
Structures can show the parent of a compound that is named as a salt.

Columns and labels:
[1] = test system: (+)-MK801 binding site of the ionotropic NMDA receptor; assay: (3H)-(+)-MK801 receptor binding test on rat brain membrane homogenate; details: 10 μmole/l compound, 1 nmole/l (3H)-(+)-MK801, mean values of double determinations
Experimental: The investigations to determine the NMDA antagonistic action of the compounds according to the invention were carried out on brain membrane homogenates (rat brain homogenate minus cerebellum, pons and medulla oblongata from male Wistar strain rats (Charles River, Sulzfeld, Germany)).
For this, freshly prepared rat brains were digested, after removal of the cerebellum, pons and medulla oblongata, in 50 mmole/l Tris/HCl (pH 7.7) in a Polytron homogeniser (model PT3000, Kinematika AG, Littau, Switzerland) at 6,000 revs. per minute (rpm) for 1 minute while cooling in ice and then centrifuged for 15 minutes at 4° C. and 60,000 g. The supernatant was decanted and discarded, and the membrane pellet was taken up again in 50 mmole/l of Tris/HCl (pH 7.7) and digested in a homogeniser at 2,000 rpm for 1 minute and recentrifuged for 15 minutes at 4° C. and 60,000 g. The supernatant was discarded again and the membrane pellet was homogenised in 50 mmole/l Tris/HCl (pH 7.7) (2,000 rpm for 1 minute) and aliquot portions were frozen at −70° C.
For the receptor binding test aliquots were in each case thawed out and then centrifuged for 15 minutes at 4° C. and 60,000 g. After decanting and discarding the supernatant, the membrane pellet for the binding test was taken up in binding test buffer and homogenised (2,000 rpm for 1 minute). 5 mmole/l Tris/HCl (pH 7.7) supplemented with 30 μmole/l of glycine and 100 μmole/l of glutamic acid was used as binding test buffer.
1 nmole/l of (^3H)-(+)-MK801 ((5R, 10S)-(+)-5-methyl-10,11-dihydro-5H-dibenzo(a,d)cyclohepten-5,10-imine (NET-972, NEN, Cologne, Germany) was added as radioactively labelled ligand. The proportion of non-specific binding was determined in the presence of 10 μmole/l of non-radioactively labelled (+)-MK801 (RBI/Sigma, Deisenhofen, Germany). In further assays the respective compounds according to the invention were added in concentration series and the displacement of the radioactive ligand from its specific binding to the NMDA receptor was measured.
The batches were incubated in each case for 40 minutes at 25° C. and then harvested by filtration to determine the radioactive ligand bound to the brain membrane homogenate. The radioactivity retained by the filter was measured after adding a scintillator (“Ready Protein” scintillator, Beckmann Coulter GmbH, Krefeld, Germany) in a β-counter (Packard TR^1-CARB Liquid Scintillation Analyser 2000CA, Packard Instrument, Meriden, Conn. 06450, USA).
The resulting percentage inhibition of the specific binding of the ligand (^3H)-(+)-MK801 in the presence of in each case 10 μmole/l of the respective compound according to the invention serves as a measure of the affinity of this compound for the (+)-MK801 binding site of the ionotropic NMDA receptor. The affinities are given in Table 2 as mean values of double determinations on selected examples.

[2] = target: T1, nucleoside transport protein (Homo sapiens, UniProt Q99808); assay: inhibition of the nucleoside transport protein ([3H]NBl displacement, erythrocyte membrane); type: binding; details: 1.5 nM [3H]NBl; for Ki: 30 minutes at 25° C.; for % Displacement at 10 μM: 10 μM compound
T1 construct: 100 μl of an aqueous suspension of erythrocyte membrane; from tissue; host or cells: erythrocyte membrane
T1 sequence (Q99808 1-456): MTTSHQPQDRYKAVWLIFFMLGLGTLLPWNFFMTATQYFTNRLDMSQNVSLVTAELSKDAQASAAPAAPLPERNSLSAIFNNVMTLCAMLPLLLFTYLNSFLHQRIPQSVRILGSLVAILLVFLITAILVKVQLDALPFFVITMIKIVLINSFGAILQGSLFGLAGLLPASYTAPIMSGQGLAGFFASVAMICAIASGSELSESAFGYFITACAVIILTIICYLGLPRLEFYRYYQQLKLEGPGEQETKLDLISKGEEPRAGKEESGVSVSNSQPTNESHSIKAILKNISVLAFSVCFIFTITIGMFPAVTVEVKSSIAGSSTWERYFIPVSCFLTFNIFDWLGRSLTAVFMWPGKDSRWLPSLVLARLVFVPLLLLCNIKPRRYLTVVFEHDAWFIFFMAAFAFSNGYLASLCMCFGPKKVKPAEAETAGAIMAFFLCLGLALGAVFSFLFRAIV
Experimental: The following test conditions were chosen for the determination of the inhibition of the nucleoside transport protein:
100 μl of the substance solution in aqueous solution with DMSO as solution aid were incubated for 30 minutes at 25° C. with 100 μl of 1.5 nM [^3H]NBl ([…]), 100 μl of buffer (50 mM Tris.HCl, pH 7.4) and 100 μl of an aqueous suspension of erythrocyte membrane. After the incubation the test mixture was filtered off (Whatman GF/C Filter, post-washed with 50 mM Tris.HCl). The filters were transferred to test tubes, 3.5 ml of scintillation fluid were added, and after 2 hours the radioactivity was measured in a β-counter.

[3] = target: T2, recombinant human adenosine A3 receptor (Homo sapiens, UniProt P0DMS8); assay: adenosine A3 receptor displacement assay with [125I]AB-MECA; type: binding; details: compound concentration 3 μM; ligand 0.1 nM [125I]AB-MECA
T2 construct: expressed in transfected cells
T2 sequence (P0DMS8 1-318): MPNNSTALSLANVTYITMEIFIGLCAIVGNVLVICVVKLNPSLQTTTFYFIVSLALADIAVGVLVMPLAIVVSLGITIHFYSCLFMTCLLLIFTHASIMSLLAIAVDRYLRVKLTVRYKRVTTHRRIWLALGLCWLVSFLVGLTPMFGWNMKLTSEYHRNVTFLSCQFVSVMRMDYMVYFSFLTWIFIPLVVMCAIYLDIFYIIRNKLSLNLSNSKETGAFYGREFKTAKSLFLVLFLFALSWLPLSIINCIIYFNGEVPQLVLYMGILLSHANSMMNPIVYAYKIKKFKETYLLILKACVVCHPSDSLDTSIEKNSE
Experimental: The dihydrochloride of Example 147 (prepared from Example 147 in a similar manner to Examples 145 and 152) was investigated as regards its affinity for the recombinant human adenosine A3 receptor in a displacement assay (C. A. Salvatore et al., Process. Natl. Acad. Sci. USA (1993), Vol. 90, 10365–10369). At a ligand concentration of 0.1 nM [^125I]AB-MECA (N^6-(4-amino-3-[^125I]iodobenzyladenosine) the displacement at a concentration of 3 μM was 93%.

Row | SMILES | % Inhibition of the specific binding of the ligand (3H)-(+)-MK801 [1] | Ki [2] | also measured
1 | BrC1C=NN2C1=NC(c1ccccn1)CC2Sc1ccccc1 (stereo not shown) [Example 143, 3-bromo-7-phenylsulfanyl-5-pyridin-2-yl-3,5,6,7-tetrahydropyrazolo[1,5-a]pyrimidine] | 49% |  | 
2 | OC1=NN2C(=NC(c3ccccn3)CC2c2ccccc2)C1N=Nc1ccccc1 (stereo not shown) [Example 140, 7-phenyl-3-phenylazo-5-pyridin-2-yl-3,5,6,7-tetrahydropyrazolo[1,5-a]pyrimidin-2-ol] | 44% |  | 
3 | COc1ccc(C2CC(c3ccc([N+](=O)[O-])o3)Nc3c(C#N)c(SC)nn32)cc1OC (stereo not shown) [Example 153, 7-(3,4-dimethoxyphenyl)-2-methylsulfanyl-5-(5-nitrofuran-2-yl) tetrahydropyrazolo[1,5-a]pyrimidine-3-carbonitrile] |  |  | % Displacement at 10 μM [2]: 50%
4 | COc1ccc(C2CC(c3ccc([N+](=O)[O-])s3)Nc3c(Br)c(-c4ccccc4)nn32)cc1OC (stereo not shown) [Example 54, 3-bromo-7-(3,4-dimethoxyphenyl)-5-(5-nitrothiophen-2-yl)-2-phenyltetrahydropyrazolo[1,5-a]pyrimidine] |  | 1300 nM | 
5 | COc1ccc(C2CC(c3ccccn3)Nc3c(Br)c(-c4ccccc4)nn32)cc1OC (stereo not shown) [dihydrochloride of Example 147, 3-bromo-7-(3,4-dimethoxyphenyl)-2-phenyl-5-pyridin-2-yl-tetrahydropyrazolo[1,5-a]pyrimidine] |  |  | displacement [3]: 93%
6 | N#CC1C=NN2C1=NC(c1ccccn1)CC2Sc1ccccc1 (stereo not shown) [Example 144, 7-phenylsulfanyl-5-pyridin-2-yl-3,5,6,7-tetrahydropyrazolo[1,5-a]pyrimidine-3-carbonitrile] | 45% |  | 
7 | OC1=NN2C(=NC(c3ccccn3)CC2Sc2ccccc2)C1N=Nc1ccccc1 (stereo not shown) [Example 142, 3-phenylazo-7-phenylsulfanyl-5-pyridin-2-yl-3,5,6,7-tetrahydropyrazolo[1,5-a]pyrimidin-2-ol] | 75% |  | 
8 | CCOC(=O)C1C=NN2C1=NC(c1ccccn1)CC2Sc1ccccc1 (stereo not shown) [Example 141, 7-phenylsulfanyl-5-pyridin-2-yl-3,5,6,7-tetrahydropyrazolo[1,5-a]pyrimidine-3-carboxylic acid ethyl ester] | 45% |  | 
9 | CCOC(=O)c1cnn2c1NC(c1ccccn1)CC2c1ccc(OC)c(OC)c1 (stereo not shown) [Example 154, 7-(3,4-dimethoxyphenyl)-5-pyridin-2-yl-4,5,6,7-tetrahydropyrazolo[1,5-a]pyrimidine-3-carboxylic acid ethyl ester] |  |  | % Displacement at 10 μM [2]: 41%
10 | COc1ccc(C2CC(c3ccc([N+](=O)[O-])s3)Nc3c(C#N)cnn32)cc1OC (stereo not shown) [Example 56, 7-(3,4-dimethoxyphenyl)-5-(5-nitrothiophen-2-yl)-tetrahydropyrazolo[1,5-a]pyrimidine-3-carbonitrile] |  |  | % Displacement at 10 μM [2]: 43%
11 | COc1ccc(C2CC(c3ccc([N+](=O)[O-])s3)Nc3c(N=Nc4ccccc4)c(O)nn32)cc1OC (stereo not shown) [Example 53, 7-(3,4-dimethoxyphenyl)-5-(5-nitrothiophen-2-yl)-3-phenylazotetrahydropyrazolo[1,5-a]pyrimidin-2-ol] |  | 600 nM | 
12 | COc1ccc(C2CC(c3ccc([N+](=O)[O-])o3)Nc3c(Br)c(-c4ccccc4)nn32)cc1OC (stereo not shown) [Example 39, 3-bromo-7-(3,4-dimethoxyphenyl)-5-(5-nitrofuran-2-yl)-2-phenyl-tetrahydropyrazolo[1,5-a]pyrimidine] |  |  | % Displacement at 10 μM [2]: 40%

The next lines start with results.

Row | % Inhibition of the specific binding of the ligand (3H)-(+)-MK801 [1] | Ki [2] | SMILES | also measured
13 |  | 600 nM | COc1ccc(C2CC(C(=O)c3ccccc3)Nc3c(C#N)c(SC)nn32)cc1OC (stereo not shown) [Example 64, 5-benzoyl-7-(3,4-dimethoxyphenyl)-2-methylsulfanyltetrahydropyrazolo[1,5-a]pyrimidine-3-carbonitrile] | 
14 |  | 300 nM | COc1ccc(C2CC(CCc3ccccc3)Nc3c(C#N)c(SC)nn32)cc1OC (stereo not shown) [Example 111, 7-(3,4-dimethoxyphenyl)-2-methylsulfanyl-5-phenethyl-tetrahydropyrazolo[1,5-a]pyrimidine-3-carbonitrile] | 
15 |  | 400 nM | COc1ccc(C2CC(c3ccccn3)Nc3c(Br)c(-c4ccccc4)nn32)cc1OC (stereo not shown) [Example 145, 3-bromo-7-(3,4-dimethoxyphenyl)-2-phenyl-5-pyridin-2-yl-4,5,6,7-tetrahydropyrazolo[1,5-a]pyrimidine dihydrochloride] | 
16 |  | 400 nM | COc1ccc(C2CC(c3ccc([N+](=O)[O-])s3)Nc3c(C#N)c(SC)nn32)cc1OC (stereo not shown) [Example 55, 7-(3,4-dimethoxyphenyl)-2-methylsulfanyl-5-(5-nitrothiophen-2-yl)-tetrahydropyrazolo[1,5-a]pyrimidine-3-carbonitrile] | 
